Data published in patent US20160199351A1, “COMPOSITIONS AND METHODS FOR INHIBITING FUNGAL INFECTIONS” (priority 2015, published 2016).
Values after ≈ are worked out from the molar mass of the structure shown. Read-outs that look alike come from different tables or passages of the source.

What was measured:
C. glabrata = assay: MIC against Candida species (Table 4)
Rhizopus oryzae [1] = assay: MIC, CLSI M38-A2 broth dilution (Table 1); type: cell-based
Scedosporium apiospermum = assay: MIC, CLSI M38-A2 broth dilution (Table 1); type: cell-based
Aspergillus fumigatus = assay: Recovery of Aspergillus fumigatus mycelia growth after removal of antifungal drugs (MTT); type: cell-based; conditions: treated 12 hours, drug removed, 24 hours more
Fusarium oxysporum = assay: MIC, CLSI M38-A2 broth dilution (Table 1); type: cell-based
Rhizopus oryzae [2] = assay: MIC (Table 5); conditions: Rhizopus arrhizus

**Q.** For `NCC(=O)Nc1ccc(-n2nc(C(F)(F)F)cc2-c2ccc3c(ccc4ccccc43)c2)cc1` [AR-12, 2-amino-N-(4-(5-(phenanthren-2-yl)-3-(trifluoromethyl)-1H-pyrazol-1-yl)phenyl)acetamide], which MIC50 (C. glabrata; Nakaseomyces glabratus, 48 h, isolate CG-3, 48 hrs) is on record?
**A.** 4 µg/mL (≈ 8.69 µM)

**Q.** What about the MIC50 (C. glabrata; Nakaseomyces glabratus, 48 h, isolate CG-4, 48 hrs) of the same molecule?
**A.** 4 µg/mL (≈ 8.69 µM)

**Q.** And the MIC50 (C. glabrata; Nakaseomyces glabratus, 48 h, isolate CG-5, 48 hrs)?
**A.** 4 µg/mL (≈ 8.69 µM)

**Q.** And the MIC50 (C. glabrata; Nakaseomyces glabratus, 48 h, isolate CG-6, 48 hrs)?
**A.** 4 µg/mL (≈ 8.69 µM)

**Q.** What about the MIC50 (C. glabrata; Nakaseomyces glabratus, 48 h, isolate CG-7, 48 hrs) of the same molecule?
**A.** 4 µg/mL (≈ 8.69 µM)

**Q.** And the MIC50 (C. glabrata; Nakaseomyces glabratus, 48 h, isolate CG-8, 48 hrs)?
**A.** 4 µg/mL (≈ 8.69 µM)

**Q.** And the MIC50 (C. glabrata; Nakaseomyces glabratus, 48 h, isolate CG-9, 48 hrs)?
**A.** 4 µg/mL (≈ 8.69 µM)

**Q.** And the MIC50 (C. glabrata; Nakaseomyces glabratus, 48 h, isolate CG-10, 48 hrs)?
**A.** 4 µg/mL (≈ 8.69 µM)

**Q.** And the MIC (C. glabrata; Nakaseomyces glabratus, 48 h, read-out: MIC 100%)?
**A.** 4 µg/mL (≈ 8.69 µM)

**Q.** And the “MIC 100%” value (C. glabrata; isolate CG-1, 24 hrs)?
**A.** 4 µg/mL (≈ 8.69 µM)

**Q.** And the “MIC 100%” value (C. glabrata; isolate CG-1, 48 hrs)?
**A.** 4 µg/mL (≈ 8.69 µM)

**Q.** What about the “MIC 100%” value (C. glabrata; isolate CG-2, 24 hrs) of the same molecule?
**A.** 4 µg/mL (≈ 8.69 µM)

**Q.** And the “MIC 100%” value (C. glabrata; isolate CG-2, 48 hrs)?
**A.** 4 µg/mL (≈ 8.69 µM)

**Q.** And the “MIC 100%” value (C. glabrata; isolate CG-4, 24 hrs)?
**A.** 4 µg/mL (≈ 8.69 µM)

**Q.** And the “MIC 100%” value (C. glabrata; isolate CG-4, 48 hrs)?
**A.** 4 µg/mL (≈ 8.69 µM)

**Q.** What about the “MIC 100%” value (C. glabrata; isolate CG-5, 24 hrs) of the same molecule?
**A.** 4 µg/mL (≈ 8.69 µM)

**Q.** And the “MIC 100%” value (C. glabrata; isolate CG-5, 48 hrs)?
**A.** 4 µg/mL (≈ 8.69 µM)

**Q.** And the “MIC 100%” value (C. glabrata; isolate CG-6, 24 hrs)?
**A.** 4 µg/mL (≈ 8.69 µM)

**Q.** And the “MIC 100%” value (C. glabrata; isolate CG-6, 48 hrs)?
**A.** 4 µg/mL (≈ 8.69 µM)

**Q.** And the “MIC 100%” value (C. glabrata; isolate CG-7, 24 hrs)?
**A.** 4 µg/mL (≈ 8.69 µM)

**Q.** And the “MIC 100%” value (C. glabrata; isolate CG-7, 48 hrs)?
**A.** 4 µg/mL (≈ 8.69 µM)

**Q.** What about the “MIC 100%” value (C. glabrata; isolate CG-8, 24 hrs) of the same molecule?
**A.** 4 µg/mL (≈ 8.69 µM)

**Q.** And the “MIC 100%” value (C. glabrata; isolate CG-8, 48 hrs)?
**A.** 4 µg/mL (≈ 8.69 µM)

**Q.** And the “MIC 100%” value (C. glabrata; isolate CG-9, 24 hrs)?
**A.** 4 µg/mL (≈ 8.69 µM)

**Q.** And the “MIC 100%” value (C. glabrata; isolate CG-9, 48 hrs)?
**A.** 4 µg/mL (≈ 8.69 µM)

**Q.** What about the “MIC 100%” value (C. glabrata; isolate CG-10, 24 hrs) of the same molecule?
**A.** 4 µg/mL (≈ 8.69 µM)

**Q.** And the “MIC 100%” value (C. glabrata; isolate CG-10, 48 hrs)?
**A.** 4 µg/mL (≈ 8.69 µM)

**Q.** And the “MIC 50%” value (Rhizopus oryzae [1]; isolate RO1, 24 hours)?
**A.** 4 gg/m1

**Q.** And the “MIC 100%” value (Rhizopus oryzae [1]; isolate RO1, 24 hours)?
**A.** 4 gg/m1

**Q.** And the “MIC 50%” value (Rhizopus oryzae [1]; isolate RO2, 24 hours)?
**A.** 4 gg/m1

**Q.** What about the “MIC 100%” value (Rhizopus oryzae [1]; isolate RO2, 24 hours) of the same molecule?
**A.** 4 gg/m1

**Q.** What about the “MIC 50%” value (Rhizopus oryzae [1]; isolate RO3, 24 hours) of the same molecule?
**A.** 4 gg/m1

**Q.** What about the “MIC 100%” value (Rhizopus oryzae [1]; isolate RO3, 24 hours) of the same molecule?
**A.** 4 gg/m1

**Q.** What about the “MIC 50%” value (Scedosporium apiospermum; isolate SA1, 72 hours) of the same molecule?
**A.** 2 gg/m1

**Q.** And the “MIC 100%” value (Scedosporium apiospermum; isolate SA1, 72 hours)?
**A.** 2 gg/m1

**Q.** What about the “MIC 50%” value (Scedosporium apiospermum; isolate SA2, 72 hours) of the same molecule?
**A.** 1 gg/m1

**Q.** What about the “MIC 100%” value (Scedosporium apiospermum; isolate SA2, 72 hours) of the same molecule?
**A.** 2 gg/m1

**Q.** What about the “recovery of mycelia growth after removal of drug” value (Aspergillus fumigatus) of the same molecule?
**A.** no viable Aspergillus fumigatus mycelia

**Q.** What about the “MIC 50%” value (Fusarium oxysporum; isolate FO1, 48 hours) of the same molecule?
**A.** 4 gg/m1

**Q.** What about the “MIC 100%” value (Fusarium oxysporum; isolate FO1, 48 hours) of the same molecule?
**A.** 4 gg/m1

**Q.** And the “MIC 50%” value (Fusarium oxysporum; isolate FO2, 48 hours)?
**A.** 4 gg/m1

**Q.** And the “MIC 100%” value (Fusarium oxysporum; isolate FO2, 48 hours)?
**A.** 4 gg/m1

**Q.** What about the MIC50 (Rhizopus oryzae [2]; 24 h, isolate R-1, 24 hrs) of the same molecule?
**A.** 4 µg/mL (≈ 8.69 µM)

**Q.** And the MIC50 (Rhizopus oryzae [2]; 24 h, isolate R-2, 24 hrs)?
**A.** 4 µg/mL (≈ 8.69 µM)

**Q.** What about the MIC50 (Rhizopus oryzae [2]; 24 h, isolate R-3, 24 hrs) of the same molecule?
**A.** 4 µg/mL (≈ 8.69 µM)

**Q.** And the MIC50 (Rhizopus oryzae [2]; 24 h, isolate R-4, 24 hrs)?
**A.** 4 µg/mL (≈ 8.69 µM)

**Q.** What about the MIC50 (Rhizopus oryzae [2]; 24 h, isolate R-5, 24 hrs) of the same molecule?
**A.** 2 µg/mL (≈ 4.34 µM)

**Q.** And the MIC50 (Rhizopus oryzae [2]; 24 h, isolate R-6, 24 hrs)?
**A.** 4 µg/mL (≈ 8.69 µM)

**Q.** What about the MIC (Rhizopus oryzae [2]; 24 h, read-out: MIC 100%, isolate R-1, 24 hrs) of the same molecule?
**A.** 4 µg/mL (≈ 8.69 µM)

**Q.** What about the MIC (Rhizopus oryzae [2]; 24 h, read-out: MIC 100%, isolate R-2, 24 hrs) of the same molecule?
**A.** 4 µg/mL (≈ 8.69 µM)

**Q.** And the MIC (Rhizopus oryzae [2]; 24 h, read-out: MIC 100%, isolate R-3, 24 hrs)?
**A.** 4 µg/mL (≈ 8.69 µM)

**Q.** And the MIC (Rhizopus oryzae [2]; 24 h, read-out: MIC 100%, isolate R-4, 24 hrs)?
**A.** 4 µg/mL (≈ 8.69 µM)

**Q.** What about the MIC (Rhizopus oryzae [2]; 24 h, read-out: MIC 100%, isolate R-5, 24 hrs) of the same molecule?
**A.** 4 µg/mL (≈ 8.69 µM)

**Q.** What about the MIC (Rhizopus oryzae [2]; 24 h, read-out: MIC 100%, isolate R-6, 24 hrs) of the same molecule?
**A.** 4 µg/mL (≈ 8.69 µM)

**Q.** What about the MIC50 (Rhizopus oryzae [2]; isolate R-1, 48/72 hrs) of the same molecule?
**A.** 4 µg/mL (≈ 8.69 µM)

**Q.** And the MIC50 (Rhizopus oryzae [2]; isolate R-2, 48/72 hrs)?
**A.** 8 µg/mL (≈ 17.4 µM)

**Q.** And the MIC50 (Rhizopus oryzae [2]; isolate R-3, 48/72 hrs)?
**A.** 4 µg/mL (≈ 8.69 µM)

**Q.** And the MIC50 (Rhizopus oryzae [2]; isolate R-4, 48/72 hrs)?
**A.** 4 µg/mL (≈ 8.69 µM)

**Q.** What about the MIC50 (Rhizopus oryzae [2]; isolate R-5, 48/72 hrs) of the same molecule?
**A.** 4 µg/mL (≈ 8.69 µM)

**Q.** And the MIC50 (Rhizopus oryzae [2]; isolate R-6, 48/72 hrs)?
**A.** 4 µg/mL (≈ 8.69 µM)

**Q.** And the MIC (Rhizopus oryzae [2]; read-out: MIC 100%, isolate R-1, 48/72 hrs)?
**A.** 4 µg/mL (≈ 8.69 µM)

**Q.** What about the MIC (Rhizopus oryzae [2]; read-out: MIC 100%, isolate R-2, 48/72 hrs) of the same molecule?
**A.** 8 µg/mL (≈ 17.4 µM)

**Q.** And the MIC (Rhizopus oryzae [2]; read-out: MIC 100%, isolate R-3, 48/72 hrs)?
**A.** 4 µg/mL (≈ 8.69 µM)

**Q.** And the MIC (Rhizopus oryzae [2]; read-out: MIC 100%, isolate R-4, 48/72 hrs)?
**A.** 4 µg/mL (≈ 8.69 µM)

**Q.** And the MIC (Rhizopus oryzae [2]; read-out: MIC 100%, isolate R-5, 48/72 hrs)?
**A.** 4 µg/mL (≈ 8.69 µM)

**Q.** What about the MIC (Rhizopus oryzae [2]; read-out: MIC 100%, isolate R-6, 48/72 hrs) of the same molecule?
**A.** 4 µg/mL (≈ 8.69 µM)
